Source: patent publication US20260207618A1, “PYRIMIDINE CARBOXAMIDE COMPOUNDS” (Acrivon Therapeutics, Inc., priority 2022, published 2026)

Columns and labels:
[1] = biological target: T1, recombinant human Wee1A kinase (Homo sapiens, UniProt P30291); assay: LanthaScreen Europium (Eu) Kinase Binding Assay, Wee1A kinase (TR-FRET tracer displacement); settings: 30 nM tracer 178, 5 nM Wee1A kinase, 60 minutes at room temperature
T1 construct: full length Wee1A kinase was expressed by baculovirus in insect cells; purchased Invitrogen PV3817; host or cells: insect cells (baculovirus)
T1 sequence (P30291 whole entry): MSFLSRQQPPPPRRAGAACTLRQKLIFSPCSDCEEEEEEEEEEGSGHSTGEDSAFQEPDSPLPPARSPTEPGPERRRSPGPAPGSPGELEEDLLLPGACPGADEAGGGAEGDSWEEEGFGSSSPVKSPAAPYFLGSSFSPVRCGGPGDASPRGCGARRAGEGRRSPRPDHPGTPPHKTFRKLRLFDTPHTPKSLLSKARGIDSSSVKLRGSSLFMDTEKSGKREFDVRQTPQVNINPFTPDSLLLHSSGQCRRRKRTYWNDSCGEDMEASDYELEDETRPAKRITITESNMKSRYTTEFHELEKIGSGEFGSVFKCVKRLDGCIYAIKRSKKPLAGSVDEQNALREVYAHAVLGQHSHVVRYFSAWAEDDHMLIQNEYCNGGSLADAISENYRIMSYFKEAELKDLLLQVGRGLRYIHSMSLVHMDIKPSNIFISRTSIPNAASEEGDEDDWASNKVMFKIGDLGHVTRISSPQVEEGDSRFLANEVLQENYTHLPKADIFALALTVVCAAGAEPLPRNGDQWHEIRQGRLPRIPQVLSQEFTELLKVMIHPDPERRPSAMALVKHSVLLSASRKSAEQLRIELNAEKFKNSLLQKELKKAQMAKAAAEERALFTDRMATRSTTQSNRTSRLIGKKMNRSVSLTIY
Source text: We used a LanthaScreen Europium (Eu) Kinase Binding Assay to determine the binding of provided compounds to Wee1A kinase. The assay utilizes an Alexa Fluor 647-labeled ATP competitive kinase tracer that binds to the ATP binding site of a GST-tagged Wee1A kinase, while a europium (Eu) labeled antibody binds to the GST tag. The proximity of fluorescently labeled kinase tracer and europium (Eu) donor fluorophore antibody leads to fluorescence resonance energy transfer (FRET) to the fluorescence label (acceptor) upon excitation of the Eu (donor). Displacement of tracer from the ATP-binding site by a test compound disturbs the proximity between both labels thus lowering the FRET.
This time resolved-FRET binding assay was performed in white 384-well low volume plates (Greiner, cat #784075), at room temperature in kinase buffer A (KBA; Invitrogen cat #PV3189), consisting of 50 mM HEPES-NaOH (pH 7.5), 0.01% Brij-35, 10 mM MgCl2, and 1 mM EGTA. 5 μl of compound (diluted in reaction buffer, to 1% DMSO) were added to various wells in the plate, followed by 5 μl each of recombinant human Wee1A kinase (full length Wee1A kinase was expressed by baculovirus in insect cells using a N-terminal GST tag (MW: 99.1 kDa) (Invitrogen cat #PV3817) and LanthaScreen Eu-anti-GST antibody (Invitrogen, cat #PV5594). After this, 5 μl of kinase tracer 178 (Invitrogen, cat #PV5593) was added to the plate and the plate was incubated for 60 minutes at room temperature. The final assay conditions in each well were: 30 nM tracer 178, 5 nM Wee1A kinase and 2 nM Eu-labeled antibody in total assay volume of 15 μl. An Envision 2104 (Perkin-Elmer) Plate Reader with the following time-resolve fluorescence setting was used for performing LanthaScreen kinase binding assay. • Excitation 320 nm (30 nm bandpass) • Kinase Tracer Emission 665 nm (10 nm bandpass) • LanthaScreen Eu-anti-Tag Antibody Emission 615 nm (10 nm bandpass) • Dichroic Mirror Instrument dependent • Delay Time 100 μs • Integration Time 200 μs
To calculate the emission ratio, the acceptor/tracer emission ([…]) was divided by the antibody/donor emission ([…]) and the average of duplicate measurement was used for calculations. Data plotting, analysis of binding, and curve fitting was done using Excel add-in XLfit version 5.5.0.5 (IDBS, Guildford, United Kingdom).

[2] = tested on: Cdk1 phosphorylated on tyrosine 15; assay: High-content imaging of pCdk1 Y15 by immunofluorescence in ACHN cells; assay type: cell-based; settings: Homo sapiens, high-content imaging (IF), 4 h, 7 to 5000 nM, read-out: CDK1 Tyr15 Phosphorylation EC50 (IC50)
Experimental: ACHN renal cell carcinoma cell line (ATCC) was cultured in Minimum Essential Medium Eagle supplemented with 10% fetal calf serum (Sigma), 1% Penicillin-Streptomycin and 10 mM HEPES buffer (HyClone). Cell cultures were kept in a humidified incubator at 37° C. and 5% CO2. Cells were routinely tested for Mycoplasma contamination.
High-content imaging of ACHN renal cell carcinoma cells was used for quantification of CDK1 phosphorylated on tyrosine 15 by immunofluorescence (“IF”). 20 000 cells per well were seeded in tissue culture treated 96 well plates and treated with compounds at concentrations ranging from 7 to 5000 nM for 4 h. Cells were fixated for 15 minutes in 4% paraformaldehyde solution, washed in PBS and permeabilized using 0.2% Triton X-100. Blocking was performed for 1 h at RT using Blocker FL Fluorescent Blocking Buffer (Thermo Scientific), thereafter cells were incubated with primary antibody (rabbit anti-pCDK1 Y^15, #4539, Cell Signaling Technology) at 4° C. ON. Alexa Fluor Plus 647 labelled goat anti-rabbit (A32733. Thermo Scientific) was used as secondary antibody. After washing in PBS, nuclei were stained with DAPI solution for 10 min at RT, protected from light. Cells were imaged using an ImageXpress Pico automated imaging system and CellReporter Xpress software (Molecular Devices). The percentage cells with nuclear positivity for pCdk1 Y^15 compared to DMSO control was determined for each well and drug dose response curves and EC50 values were calculated and visualized using GraphPad Prism.

SMILES	IC50 [1]	EC50 [2]
COc1nc(Nc2ccc(C3CCN(C)CC3)c(C)c2)ncc1C(=O)Nc1c(C)cccc1Br [Compound 108, N-(2-bromo-6-methylphenyl)-4-methoxy-2-((3-methyl-4-(1-methylpiperidin-4-yl)phenyl)amino)pyrimidine-5-carboxamide]	≤ 10 nM	100 to 500 nM
COc1nc(Nc2ccc(N3CCN(C)CC3)cc2)ncc1C(=O)Nc1c(Cl)cccc1Cl [Compound 111, N-(2,6-dichlorophenyl)-4-methoxy-2-((4-(4-methylpiperazin-1-yl)phenyl)amino)pyrimidine-5-carboxamide]	≤ 10 nM	100 to 500 nM
COc1nc(Nc2ccc(C3CCN(C)CC3)c(C)c2)ncc1C(=O)Nc1c(F)cccc1Cl [Compound 113, N-(2-chloro-6-fluorophenyl)-4-methoxy-2-((3-methyl-4-(1-methylpiperidin-4-yl)phenyl)amino)pyrimidine-5-carboxamide]	≤ 10 nM	100 to 500 nM
COc1nc(Nc2ccc(C3CCN(C)CC3)c(C)c2)ncc1C(=O)Nc1ccccc1C(F)(F)F [Compound 114, 4-methoxy-2-((3-methyl-4-(1-methylpiperidin-4-yl)phenyl)amino)-N-(2-(trifluoromethyl)phenyl)pyrimidine-5-carboxamide]	≤ 10 nM	> 1000 nM
COc1nc(Nc2ccc(C3CCN(C)CC3)c(C)c2)ncc1C(=O)Nc1c(C)cccc1C(F)(F)F [Compound 120, 4-methoxy-2-((3-methyl-4-(1-methylpiperidin-4-yl)phenyl)amino)-N-(2-methyl-6-(trifluoromethyl)phenyl)pyrimidine-5-carboxamide]	≤ 10 nM	> 1000 nM
COc1nc(Nc2ccc(C3CCN(C)CC3)c(C)c2)ncc1C(=O)Nc1c(Cl)cc(F)cc1Cl [Compound 121, N-(2,6-dichloro-4-fluorophenyl)-4-methoxy-2-((3-methyl-4-(1-methylpiperidin-4-yl)phenyl)amino)pyrimidine-5-carboxamide]	≤ 10 nM	100 to 500 nM
CN1CCN(c2ccc(Nc3ncc(C(=O)Nc4c(Cl)cccc4Cl)c(OCCO)n3)cc2)CC1 [Compound 123, N-(2,6-dichlorophenyl)-4-(2-hydroxyethoxy)-2-((4-(4-methylpiperazin-1-yl)phenyl)amino)pyrimidine-5-carboxamide]	10 to 100 nM	> 1000 nM
COc1nc(Nc2ccc(C3CCN(C)CC3)c(C)c2)ncc1C(=O)Nc1c(Cl)ccc(F)c1F [Compound 125, N-(6-chloro-2,3-difluorophenyl)-4-methoxy-2-((3-methyl-4-(1-methylpiperidin-4-yl)phenyl)amino)pyrimidine-5-carboxamide]	≤ 10 nM	> 1000 nM
COc1nc(Nc2ccc(C3CCN(C)CC3)c(C)c2)ncc1C(=O)Nc1c(F)cc(F)cc1Cl [Compound 127, N-(2-chloro-4,6-difluorophenyl)-4-methoxy-2-((3-methyl-4-(1-methylpiperidin-4-yl)phenyl)amino)pyrimidine-5-carboxamide]	≤ 10 nM	100 to 500 nM
COc1nc(Nc2ccc(C3CCN(C)CC3)c(C)c2)ncc1C(=O)Nc1c(F)ccc(F)c1Cl [Compound 128, N-(2-chloro-3,6-difluorophenyl)-4-methoxy-2-((3-methyl-4-(1-methylpiperidin-4-yl)phenyl)amino)pyrimidine-5-carboxamide]	≤ 10 nM	100 to 500 nM
COc1cccc(Cl)c1NC(=O)c1cnc(Nc2ccc(C3CCN(C)CC3)c(C)c2)nc1OC [Compound 130, N-(2-chloro-6-methoxyphenyl)-4-methoxy-2-((3-methyl-4-(1-methylpiperidin-4-yl)phenyl)amino)pyrimidine-5-carboxamide]	≤ 10 nM	> 1000 nM
CCc1cccc(Cl)c1NC(=O)c1cnc(Nc2ccc(C3CCN(C)CC3)c(C)c2)nc1OC [Compound 132, N-(2-chloro-6-ethylphenyl)-4-methoxy-2-((3-methyl-4-(1-methylpiperidin-4-yl)phenyl)amino)pyrimidine-5-carboxamide]	≤ 10 nM	100 to 500 nM
COc1nc(Nc2ccc(C3CCN(C)CC3)c(C)c2)ncc1C(=O)Nc1c(Br)cccc1C#N [Compound 134, N-(2-bromo-6-cyanophenyl)-4-methoxy-2-((3-methyl-4-(1-methylpiperidin-4-yl)phenyl)amino)pyrimidine-5-carboxamide]	≤ 10 nM	100 to 500 nM
COc1nc(Nc2ccc(C3CCN(C)CC3)c(C)c2)ncc1C(=O)Nc1c(F)cccc1Br [Compound 136, N-(2-bromo-6-fluorophenyl)-4-methoxy-2-((3-methyl-4-(1-methylpiperidin-4-yl)phenyl)amino)pyrimidine-5-carboxamide]	≤ 10 nM	100 to 500 nM
COc1nc(Nc2ccc(C3CCN(C)CC3)c(C)c2)ncc1C(=O)Nc1c(Cl)cccc1C#N [Compound 137, N-(2-chloro-6-cyanophenyl)-4-methoxy-2-((3-methyl-4-(1-methylpiperidin-4-yl)phenyl)amino)pyrimidine-5-carboxamide]	10 to 100 nM	> 1000 nM
COc1nc(Nc2ccc(C3CCN(C)CC3)c(C)c2)ncc1C(=O)Nc1cc(O)ccc1Cl [Compound 138, N-(2-chloro-5-hydroxyphenyl)-4-methoxy-2-((3-methyl-4-(1-methylpiperidin-4-yl)phenyl)amino)pyrimidine-5-carboxamide]	≤ 10 nM	> 1000 nM
COc1nc(Nc2ccc(C3CCN(C)CC3)c(C)c2)ncc1C(=O)Nc1c(C)ccc(O)c1C [Compound 142, N-(3-hydroxy-2,6-dimethylphenyl)-4-methoxy-2-((3-methyl-4-(1-methylpiperidin-4-yl)phenyl)amino)pyrimidine-5-carboxamide]	≤ 10 nM	≤ 100 nM
COc1nc(Nc2ccc(OCCN(C)C)c(C)c2)ncc1C(=O)Nc1c(Cl)cccc1Cl [Compound 143, N-(2,6-dichlorophenyl)-2-((4-(2-(dimethylamino)ethoxy)-3-methylphenyl)amino)-4-methoxypyrimidine-5-carboxamide]	≤ 10 nM	100 to 500 nM
COc1nc(Nc2ccc(OCCN3CCOCC3)c(C)c2)ncc1C(=O)Nc1c(Cl)cccc1Cl [Compound 144, N-(2,6-dichlorophenyl)-4-methoxy-2-((3-methyl-4-(2-morpholinoethoxy)phenyl)amino)pyrimidine-5-carboxamide]	≤ 10 nM	> 1000 nM
COc1nc(Nc2ccc(OC3CCN(C)CC3)c(C)c2)ncc1C(=O)Nc1c(Cl)cccc1Cl [Compound 145, N-(2,6-dichlorophenyl)-4-methoxy-2-((3-methyl-4-((1-methylpiperidin-4-yl)oxy)phenyl)amino)pyrimidine-5-carboxamide]	≤ 10 nM	100 to 500 nM
COc1nc(Nc2ccc(O[C@@H]3CCN(C)C3)c(C)c2)ncc1C(=O)Nc1c(Cl)cccc1Cl [Compound 146, (R)—N-(2,6-dichlorophenyl)-4-methoxy-2-((3-methyl-4-((1-methylpyrrolidin-3-yl)oxy)phenyl)amino)pyrimidine-5-carboxamide]	≤ 10 nM	≤ 100 nM
COc1nc(Nc2ccc(OCCCN(C)C)c(C)c2)ncc1C(=O)Nc1c(Cl)cccc1Cl [Compound 147, N-(2,6-dichlorophenyl)-2-((4-(3-(dimethylamino)propoxy)-3-methylphenyl)amino)-4-methoxypyrimidine-5-carboxamide]	≤ 10 nM	> 1000 nM
